Data on 30 compounds can be found in patent publication US20260083704A1, “LXR MODULATORS WITH BICYCLIC CORE MOIETY FOR TREATING DYSLIPIDEMIAS” (OrsoBio, Inc., priority 2022, published 2026).

The target of assay [1] is T1, GST-LXRβ ligand-binding domain (Homo sapiens, UniProt P55055).
T1 construct: amino acids 156-461; NP009052; made in house; host or cells: E. coli
T1 sequence (P55055 156-460 limits assumed): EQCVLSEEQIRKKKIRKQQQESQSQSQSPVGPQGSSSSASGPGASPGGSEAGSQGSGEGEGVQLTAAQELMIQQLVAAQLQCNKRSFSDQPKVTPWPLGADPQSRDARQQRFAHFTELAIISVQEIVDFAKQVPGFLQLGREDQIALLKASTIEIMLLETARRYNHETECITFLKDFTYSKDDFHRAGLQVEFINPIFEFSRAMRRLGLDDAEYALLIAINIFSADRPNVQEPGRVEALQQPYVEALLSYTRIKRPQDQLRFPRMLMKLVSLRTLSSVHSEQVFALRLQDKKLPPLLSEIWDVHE
The experiment in a line: TR-FRETβ activity assay (NCoA3 coactivator peptide recruitment). The following applies: 1 μM 24(S)-25-epoxycholesterol prestimulation. Type of assay: biochemical. In outline: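 E. coli-expressed GST-LXRβ LBD (aa 156-461, 76 nM) with biotinylated NCoA3 peptide (400 nM) in Tris/HCl pH 6.8 containing 1 μM 24(S)-25-epoxycholesterol agonist. Compounds tested at 50 μM down to 0.002 μM in triplicate. TR-FRET (Tb cryptate/XL665, ex 340, em 615/665 nm) read after 1 h at 4° C.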

In a further assay the target is T2, LXRβ (Homo sapiens, UniProt P55055).
T2 sequence (P55055 1-460): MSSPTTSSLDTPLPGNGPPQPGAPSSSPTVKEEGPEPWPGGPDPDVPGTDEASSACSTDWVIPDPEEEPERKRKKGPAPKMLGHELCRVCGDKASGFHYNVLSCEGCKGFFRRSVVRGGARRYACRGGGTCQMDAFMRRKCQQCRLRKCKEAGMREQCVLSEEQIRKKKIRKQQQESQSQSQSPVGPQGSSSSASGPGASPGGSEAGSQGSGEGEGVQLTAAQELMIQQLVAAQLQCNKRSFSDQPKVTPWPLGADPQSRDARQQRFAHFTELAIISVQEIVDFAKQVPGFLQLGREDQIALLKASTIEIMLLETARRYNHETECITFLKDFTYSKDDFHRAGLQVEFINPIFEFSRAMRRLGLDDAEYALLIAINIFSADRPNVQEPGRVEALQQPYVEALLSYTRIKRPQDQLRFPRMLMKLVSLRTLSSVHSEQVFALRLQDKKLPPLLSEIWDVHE
The assay can be described thus: LXR Gal4 reporter transient transfection assay (mammalian two-hybrid, HEK293), LXRβ. The following applies: full length (FL) LXRβ, HEK293; read-out: FL-M2H Gal4β. It is filed as cell-based. The arrangement: LXRβ (amino acids 156-461); expressed in transfected cells; host or cells: HEK293. In outline: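 HEK293 cells transiently co-transfected with full-length or LBD LXRα/LXRβ fused to NFkB activation domain, GAL4-DBD-fused SRC1 or NCoR cofactor domain, GAL4-responsive firefly luciferase reporter and Renilla control. Compound added 4 h post-transfection (≤0.2% DMSO), incubated 16 h; firefly and Renilla luminescence read sequentially.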

Molecules are shown by their SMILES. A value given as a limit tells only on which side of the number the result lay.

`Cc1ccc(S(=O)(=O)n2c(-c3cccc(-c4ccc(C(=O)NS(C)(=O)=O)cc4Cl)c3)c(-c3ccsc3C#N)c3cc(F)ccc32)cc1` [32/4]: the EC50 (in assay [1]; at LXRβ) was less than 100 nM throughout.

As to `N#Cc1cccc(C#N)c1-c1c(-c2cccc(C3CC3C(=O)O)c2)n(S(=O)(=O)c2ccc(C(F)F)cc2)c2ccc(F)cc12` (stereo not drawn) [3/68], the EC50 was 100 to 1000 nM in assay [1] and less than 100 nM at LXRβ.

Regarding `Cc1ccc(S(=O)(=O)n2c(-c3cccc(-c4ccc(C(=O)O)cc4)c3)c(-c3ccsc3C#N)c3cc(F)cc(O)c32)cc1` [3/54], the figures for the EC50 (in assay [1]; at LXRβ) were 100 to 1000 nM and less than 100 nM, respectively.

Consider `N#Cc1sccc1-c1c(-c2cccc(-c3ccc(C(=O)O)cc3Cl)c2)n(S(=O)(=O)c2ccc(C(F)F)nc2)c2ccc(F)cc12` [11/57], for which the EC50 (in assay [1]; on LXRβ) was less than 100 nM throughout.

On to `CC(O)(C(=O)O)c1cc(F)c(-c2cccc(-c3c(-c4c(C#N)cccc4C#N)c4cc(F)ccc4n3S(=O)(=O)c3ccc(C(F)F)cc3)c2)c(F)c1` (stereo not drawn) [3/72], for which the EC50 (in assay [1]; on LXRβ) was less than 100 nM in each case.

Consider `Cc1ccc(S(=O)(=O)n2c(-c3cccc(-c4ccc(C(=O)O)cc4Cl)c3)c(-c3cccc(F)c3C#N)c3cc(F)ccc32)cc1` [11/1], for which the EC50 (in assay [1]; at LXRβ) was less than 100 nM throughout.

In the case of `COc1ccc(S(=O)(=O)n2c(-c3cccc(N4CC(C(=O)O)C4)c3)c(-c3ccsc3C#N)c3cc(F)ccc32)cn1` [5/8], the EC50 (in assay [1]; at LXRβ) was 100 to 1000 nM in each case.

As to `Cc1n[nH]c(C)c1-c1c(-c2cccc(-c3ccc(C(=O)O)cc3Cl)c2)n(S(=O)(=O)c2ccc(C(F)F)cc2)c2ccc(F)cc12` [11/24], the EC50 (in assay [1]; on LXRβ) was 100 to 1000 nM in each case.

With `Cc1ccc(S(=O)(=O)n2c(-c3cccc(N4CC(C(=O)O)C4)c3)c(-c3ccsc3C#N)c3cc(C#N)ccc32)cc1` [3/45], the EC50 in assay [1] was in the range of 1000 to 10000 nM; on LXRβ it was 100 to 1000 nM.

With `N#Cc1cccc(C#N)c1-c1c(-c2cccc(-c3ccc(S(=O)(=O)O)cc3Cl)c2)n(S(=O)(=O)c2ccc(C(F)F)cc2)c2ccc(F)cc12` [12/10], the EC50 (in assay [1]; at LXRβ) was less than 100 nM in each case.

With `COc1cccc(-c2c(-c3cccc(-c4ccc(C(=O)O)cc4Cl)c3)n(S(=O)(=O)c3ccc(C)cc3)c3ccc(F)cc23)c1C#N` [11/3], the EC50 (in assay [1]; at LXRβ) was less than 100 nM throughout.

As to `Cc1ccc(S(=O)(=O)n2c(-c3cccc(-c4ccc(C(C)(C)N)cc4Cl)c3)c(-c3ccsc3C#N)c3cc(F)ccc32)cc1` [2/2], the EC50 (in assay [1]; at LXRβ) was 100 to 1000 nM each time.

For `Cc1ccc(S(=O)(=O)n2c(-c3cccc(C4(C)CC4C(=O)O)c3)c(-c3ccsc3C#N)c3cc(F)ccc32)cc1` (stereo not drawn) [3/2], the EC50 in assay [1] was 1000 to 10000 nM; on LXRβ, less than 100 nM.

As to `Cn1ccc(-c2c(-c3cccc(-c4ccc(C(=O)O)cc4Cl)c3)n(S(=O)(=O)c3ccc(C(F)F)cc3)c3ccc(F)cc23)c1C#N` [11/68], the EC50 (in assay [1]; at LXRβ) was less than 100 nM in each case.

In the case of `Cc1ccc(S(=O)(=O)n2c(-c3cc(N4CC(C(=O)O)C4)ccc3F)c(-c3ccsc3C#N)c3cc(F)ccc32)cc1` [3/41], the EC50 is 1000 to 10000 nM in assay [1] and less than 100 nM at LXRβ.

Regarding `COc1c(C(=O)O)ccc(-c2cccc(-c3c(-c4ccsc4C#N)c4cc(F)ccc4n3S(=O)(=O)c3ccc(C)cc3)c2)c1Cl` [12/5], the EC50 (in assay [1]; at LXRβ) was less than 100 nM in each case.

For the compound `N#Cc1sccc1-c1c(-c2cccc(-c3ccc(C(=O)NCCS(=O)(=O)O)cc3Cl)c2)n(S(=O)(=O)c2ccc(C(F)F)cc2)c2ccc(F)cc12` [10/3], the EC50 (in assay [1]; on LXRβ) was less than 100 nM each time.

Take `O=C(O)c1ccc(-c2cccc(-c3c(-c4cccc5oncc45)c4cc(F)ccc4n3S(=O)(=O)c3ccc(C(F)F)cc3)c2)c(Cl)c1` [3/69]: the EC50 (in assay [1]; on LXRβ) was 100 to 1000 nM each time.

On to `N#Cc1cccc(C#N)c1-c1c(-c2cccc(-c3ccc(C(=O)O)cc3Cl)c2)n(S(=O)(=O)C2CC3CCC2C3)c2ccc(F)cc12` (stereo not drawn) [11/66], for which the EC50 in assay [1] is 100 to 1000 nM; at LXRβ, less than 100 nM.

Consider `N#Cc1cccc(C#N)c1-c1c(-c2cccc(-c3ccc(C(=O)O)cc3F)c2)n(S(=O)(=O)C2CCC(C(F)(F)F)CC2)c2ccc(F)cc12` (stereo not drawn) [11/64], for which the EC50 was 100 to 1000 nM in assay [1] and less than 100 nM on LXRβ.

Take `O=C(O)c1ccc(-c2cccc(-c3c(-c4ccsc4C4COC4)c4cc(F)ccc4n3S(=O)(=O)c3ccc(C(F)F)cc3)c2)c(Cl)c1` [3/63]: the EC50 (in assay [1]; at LXRβ) was less than 100 nM throughout.

With `N#CC1=C(c2c(-c3cccc(-c4ccc(C(=O)O)cc4Cl)c3)n(S(=O)(=O)c3ccc(C(F)F)cc3)c3ccc(F)cc23)CCCC1` [11/42], the EC50 in assay [1] is greater than 10000 nM; at LXRβ, 100 to 1000 nM.

For the compound `Cc1ccc(S(=O)(=O)n2c(-c3cccc(-c4ccc(CN(C)C)cc4)c3)c(-c3ccsc3C#N)c3cc(F)ccc32)cc1` [8/1], the EC50 in assay [1] is 100 to 1000 nM; on LXRβ, less than 100 nM.

For the compound `Cc1ccc(S(=O)(=O)n2c(-c3cccc(N4CC(C(=O)O)C4)c3)c(-c3sccc3C#N)c3cc(F)ccc32)cc1` [3/25], the EC50 is 1000 to 10000 nM in assay [1] and less than 100 nM on LXRβ.

`Cc1ccc(S(=O)(=O)n2c(-c3cccc(N4CC(C(=O)O)C4)c3)c(-c3ccsc3C#N)c3sccc32)cc1` [4/3]: the EC50 in assay [1] was 1000 to 10000 nM; at LXRβ it was less than 100 nM.

As to `N#Cc1sccc1-c1c(-c2cccc(-c3ccc(C(=O)O)cc3)c2)n(S(=O)(=O)c2ccc3c(c2)CCC3)c2ccc(F)cc12` [23/3], the values for the EC50 (in assay [1]; on LXRβ) were 100 to 1000 nM and less than 100 nM, respectively.

In the case of `Cc1ccc(S(=O)(=O)n2c(-c3cccc(-c4cc(F)c(CO)c(S(C)(=O)=O)c4)c3)c(-c3ccsc3C#N)c3cc(F)ccc32)cc1` [2/16], the EC50 (in assay [1]; on LXRβ) was less than 100 nM throughout.

In the case of `Cc1ccc(S(=O)(=O)n2c(-c3ccnc(-c4ccc(C(=O)O)cc4)c3)c(-c3ccsc3C#N)c3cc(F)ccc32)cc1` [5/6], the figures for the EC50 (in assay [1]; on LXRβ) were 100 to 1000 nM and less than 100 nM, respectively.

As for `N#Cc1cccc(C#N)c1-c1c(-c2cccc(-c3c(F)c(F)c(C(=O)O)c(F)c3F)c2)n(S(=O)(=O)c2ccc(C(F)F)cc2)c2ccc(F)cc12` [11/54], the EC50 (in assay [1]; on LXRβ) was less than 100 nM throughout.

For `N#Cc1cccc(C#N)c1-c1c(-c2cccc([C@H]3CC[C@@H](C(=O)O)CC3)c2)n(S(=O)(=O)c2ccc(C(F)F)cc2)c2ccc(F)cc12` [11/61], the values for the EC50 (in assay [1]; on LXRβ) were 100 to 1000 nM and less than 100 nM, respectively.
